Values after ≈ are worked out from the molar mass of the structure shown.
Key:
A549 cells [1] = assay: Annexin V-FITC/propidium iodide apoptosis detection by flow cytometry; assay type: cell-based, human; conditions: IC50 dose, 24 h
Protocol: To determine whether the antiproliferative effects of the compounds on the A549 cell line proceed through the apoptotic or necrotic pathway, the assay was performed with Annexin V-FITC/propidium iodide dyes in a flow cytometry device. […] At least 10,000 cells were analyzed, and quadrant analysis was performed. The results are presented as early apoptotic cells, late apoptotic cells, viable cells, and necrotic cells in Table 3, and as a diagram in Figure 1. In control cells, the number of viable cells was 92.04%, necrotic cells were 1.16%, early apoptotic cells were 3.43%, and late apoptotic cells were 3.28%. […] Among the compounds, 2m was the most apoptosis-inducing compound, with 14.99% early apoptotic and 10.63% late apoptotic cell percentages. […] This compound was followed by compound 2c with a 13.79% early apoptotic cells and 4.03% late apoptotic cells. Among the compounds, compound 2o induced early apoptosis the least (1.87%) and necrosis the most (3.10%). […] Nonapoptotic cell death methods, such as necroptosis and pyroptosis, can be considered for the aforementioned compounds.
The compounds were treated with A549 cells at IC50 doses, and early and late apoptosis, necrosis, and viable cell ratios were determined as percentages. Cells were seeded at 37 °C in humidified air containing 5% CO2 with 10^5 cells/plate in each well. A549 cells were collected, washed twice with ice-cold PBS, and resuspended in 100 μL of binding buffer. Five μL (5 μg/mL) of Annexin V-FITC and PI were added to the cells and incubated for 15 min in the dark at room temperature (20–25 °C). Then, 400 μL of binding buffer was added to the mixture samples and analyzed on a flow cytometer. Quadrant analyses were also presented.[41] Compounds 2a, 2b, 2c, 2j, 2m, and 2o, with a satisfactory cytotoxic profile, were examined via flow cytometry to assess the apoptosis/necrosis cell ratio using previously published procedures.[42]
(§1) The apoptotic results (Annexin V-FITC, Caspase 3, JC-1) were evaluated by flow cytometry using FACS Diva Version 6.1.1. software, and the apoptotic cells were determined as the percentage of cells.

A549 cells [2] = assay: Mitochondrial membrane potential (JC-1) by flow cytometry; assay type: cell-based, human; conditions: for % Mitochondrial membrane depolarized cells / % Mitochondrial membrane polarized cells: IC50 dose, JC-1
Description: The mitochondrial membrane potential provides information about the state of electrons during ATP production through oxidative phosphorylation, which is essential for cellular viability. Mitochondrial dysfunction occurs when this electrical regulation is disturbed and can occur in various diseases and the process of apoptosis.[23] […] Compounds 2m, 2g, and 2c followed this, with depolarization levels exceeding 21%. The mitochondrial dysfunction in compound 2m can be considered a contributing factor to apoptosis.
Cell staining with JC-1 was performed according to the manufacturer’s recommendations for the BD , Pharmingen Flow Cytometry Kit. […] Compounds were applied at IC50 doses of no more than 1 × 10^6/mL per well in 6-well plates. After treatment, each cell suspension was transferred to a 15 mL polystyrene centrifuge tube, the cells were centrifuged at 400g for 5 min, and the supernatant was removed. 0.5 mL of freshly prepared working solution was added to each pellet, and the solution was vortexed. The test cells were soaked in JC-1 working solution at 37 °C for 10–15 min, and the cells were washed twice. After centrifugation at 400g for 5 min, each cell pellet was suspended in 0.5 mL of 1X assay buffer and vortexed. The cells were then analyzed by flow cytometer.
as §1

[3] = test system: A549 lung cancer cell line; assay: MTT cytotoxicity assay on A549 lung cancer cells; assay type: cell-based, human; conditions: for IC50: Homo sapiens; for SI: selectivity index: L929 versus A549
Protocol: (§2) The synthesized final compounds (2a–2o) were initially evaluated for their cytotoxic effects to assess their anticancer activity against A549 lung cancer cells. The healthy cell line L929 (mouse fibroblast cell line) was also used to determine the selective antiproliferative properties of the compounds.
(§3) The human lung cancer cell line A549 and mouse fibroblast cell line L929 were used to evaluate the cytotoxicity of the compounds. Cells propagated under the specified conditions were cultured in 96-well plates at 5 × 10^3 cells/well. […] At the end of the incubation period, cell viability was determined by measuring the absorbance of the purple color formed by the breakdown of the MTT dye at 540 nm. Half-maximal inhibitory concentrations (IC50) were determined based on the tested concentrations of the compounds. The tests were triplicated.[38] The MTT assay for cytotoxicity of compounds was determined according to previously published procedures.[39],[40]
(§4) The concentration that inhibits 50% of the cell population was calculated as IC50 using GraphPad Prism 9.0 statistical software program, and standard deviation values were analyzed. Data are expressed as mean ± SD. Comparisons were made using one-way ANOVA for continuous variables with normal distribution, and Tukey’s test was used for post hoc analysis of group differences. p < 0.05 was considered statistically significant.
(§5) The cell viability value of the control group was considered 100%, and all viability values were calculated using the formula below. The experiment was performed in 3 replicates. [drawing 2]

caspase-3 in A549 cells = assay: Caspase-3 activation; assay type: cell-based, human; conditions: 24 h
Description: Caspases can take part in the cell death mechanism through both intrinsic and extrinsic pathways, with caspase-3 being the first enzyme activated in the apoptosis process.[24] Activation of the caspase-3 enzyme by the compounds, indicated as caspase-3 positive, and inhibition, indicated as caspase-3 negative, are presented in percentage terms in Table 5.
A Spectrofluorometric Caspase-3 assay kit (BD Pharmingen, Franklin Lakes, NJ) was used for determining Caspase-3 activation by measuring the caspase-3 or DEVD-cleaving activity. Initially, A549 cells at a concentration of 1 × 10^6 cells/mL underwent a washing process using phosphate-buffered saline (PBS). Subsequently, they were suspended in a cold solution known as cell lysis buffer and kept on ice for a duration of 30 min. […] In each reaction, a mixture of […] of diluted Ac DEVD-AMC (a synthetic tetrapeptide fluorogenic substrate used to measure caspase-3 activity) and 0.2 mL of 1x HEPES buffer was added to a well. Then, […] of cell lysate was introduced into each well/reaction. The reaction mixtures were incubated at 37 °C for 1 h. The amount of AMC released from Ac-DEVD-AMC was measured by using a microplate reader (PerkinElmer/Victor/X3) with an excitation wavelength of 380 nm and an emission wavelength of 460 nm. Apoptotic cell lysates containing active caspase-3 produced significant emissions compared to controls. In addition, the AMC emission of nonapoptotic control cell lysates was taken as 100%, and the emission of other cell lysates was measured relative to the emission of control cells. All experiments were repeated in duplicate. Active compounds, which are the most cytotoxic compounds, were evaluated for caspase-3 activation using previously published procedures.[40],[44]
as §1

[4] = test system: L929 (mouse fibroblast cell line); assay: MTT cytotoxicity assay on L929 healthy cells; assay type: cell-based; conditions: mean ± SD
Protocol: as §2, §3, §4, §5

MMP-9 enzyme = target: T1, MMP-9 enzyme (Homo sapiens, UniProt P14780); assay: MMP-9 enzyme inhibition, colorimetric kit; assay type: biochemical; conditions: mean ± SD; for inhibition at 100 µM: compounds at 100 μM
T1 construct: purchased Enzo Life Sciences Inc. (Farmingdale, NY, USA)
Protocol: Compounds (2a–2o) were tested to determine their MMP-9 enzyme inhibition potential. The compounds were tested at a concentration of 100 μM, and the standard molecule NNGH at a concentration of 1.3 μM.
MMP-9 inhibition was assessed using a colorimetric kit from Enzo Life Sciences Inc. (Farmingdale, NY, USA), following procedures similar to those described in previous studies.[25],[26] A thiopeptide was used as a chromogenic substrate (Ac-PLG-[2-mercapto-4-methyl-pentanoyl]-LG-OC2H5). 2-Nitro-5-thiobenzoic acid, formed by the reaction of the sulfhydryl group produced as a result of hydrolysis of the thioester by the MMP-9 enzyme and then reaction with DTNB [5,5′-dithiobis(2-nitrobenzoic acid), Ellman’s reagent], gives absorbance at 412 nm in a microplate reader (BioTek, PowerWave, Gen5 software, Winooski, VT, USA). Based on these absorptions, MMP-9 inhibition concentrations were determined. The assays were performed in triplicate. NNGH (N-isobutyl-N-(4-methoxyphenylsulfonyl)glycyl hydroxamic acid) was used as a control inhibitor. Data were shown as mean ± SD. The inhibitor % remaining activity of MMPs was calculated using the following equation:
Inhibitor% activity remaining = (V inhibitor/V control) × 100.
The inhibition (percent) of MMPs was calculated using the following equation: [drawing 1]

T1 sequence (P14780 107-444 limits assumed): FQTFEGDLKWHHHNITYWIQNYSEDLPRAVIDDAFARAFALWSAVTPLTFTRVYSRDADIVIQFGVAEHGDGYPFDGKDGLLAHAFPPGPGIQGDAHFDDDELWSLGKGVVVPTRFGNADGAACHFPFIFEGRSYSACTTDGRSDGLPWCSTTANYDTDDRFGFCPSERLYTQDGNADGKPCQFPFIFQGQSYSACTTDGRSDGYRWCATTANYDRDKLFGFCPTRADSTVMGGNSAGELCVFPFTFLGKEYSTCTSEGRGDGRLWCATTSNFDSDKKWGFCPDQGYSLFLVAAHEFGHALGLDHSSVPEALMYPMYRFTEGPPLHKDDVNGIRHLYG

| Compound | Q1-LL viable cells (A549 cells [1]) | Q1-LR early apoptotic cells (A549 cells [1]) | Q1-UL necrotic cells (A549 cells [1]) | Q1-UR late apoptotic cells (A549 cells [1]) | % Mitochondrial membrane depolarized cells (A549 cells [2]) | % Mitochondrial membrane polarized cells (A549 cells [2]) | IC50 ([3]; A549 cells, MTT, mean ± SD) | SI: selectivity index [3] | % Caspase-3 negative cells (caspase-3 in A549 cells) | % Caspase-3 positive cells (caspase-3 in A549 cells) | IC50 [4] | also measured |
| --- | --- | --- | --- | --- | --- | --- | --- | --- | --- | --- | --- | --- |
| Clc1ccc(-c2csc(NN=Cc3cccnc3)n2)cc1Cl [Compound 2j, 4-(3,4-Dichlorophenyl)-2-(2-(pyridin-3-ylmethylene)hydrazinyl)thiazole] | 91.05% | 3.96% | 1.68% | 3.31% | 15.40% | 84.75% | 6.58 ± 0.35 µg/mL (≈ 18.8 µM) | 1.48 | 97.47% | 0.96% | 9.76 ± 0.45 µg/mL (≈ 27.9 µM) | apoptosis induction, result in words (A549 cells [1]): did not significantly induce apoptosis |
| COc1ccc(OC)c(-c2csc(NN=Cc3cccnc3)n2)c1 [Compound 2f, 4-(2,5-Dimethoxyphenyl)-2-(2-(pyridin-3-ylmethylene)hydrazinyl)thiazole] |  |  |  |  |  |  | 4.04 ± 0.29 µg/mL (≈ 11.9 µM) |  |  |  | 14 ± 0.57 µg/mL (≈ 41 µM) | inhibition at 100 µM (MMP-9 enzyme): 70.8 ± 2.2% |
| N.N.[Cl][Pt][Cl] [Cisplatin, reference compound] |  |  | 6.56% | 31.29% | 36.27% | 62.15% |  |  | 75.56% | 11.65% |  | total apoptosis (early + late apoptotic cells) (A549 cells [1]): 62.37%; IC50 A549 ([3]; A549 cells, MTT, mean ± SD): 12.65 ± 0.38 µg/mL |
| Oc1ccc(-c2csc(NN=Cc3cccnc3)n2)cc1O [Compound 2i, 4-(2-(2-(Pyridin-3-ylmethylene)hydrazinyl)thiazol-4-yl)benzene-1,2-diol] |  |  |  |  |  |  | 7.2 ± 0.95 µg/mL (≈ 23.1 µM) |  |  |  | > 250 µg/mL | inhibition at 100 µM (MMP-9 enzyme): 40.6 ± 3.01% |
| C(=NNc1nc(-c2ccc(-c3ccccc3)cc2)cs1)c1cccnc1 [Compound 2h, 4-([1,1’-Biphenyl]-4-yl)-2-(2-(pyridin-3-ylmethylene)hydrazinyl)thiazole] |  |  |  |  |  |  | 9.93 ± 0.42 µg/mL (≈ 27.9 µM) | 1.53 |  |  | 15.2 ± 0.53 µg/mL (≈ 42.7 µM) |  |
| CS(=O)(=O)c1ccc(-c2csc(NN=Cc3ccncc3)n2)cc1 [Compound 2l, 4-(4-(Methylsulfonyl)phenyl)-2-(2-(pyridin-4-ylmethylene)hydrazinyl)thiazole] |  |  |  |  |  |  | 4.7 ± 0.3 µg/mL (≈ 13.1 µM) | 1.43 |  |  | 6.74 ± 0.41 µg/mL (≈ 18.8 µM) |  |
| Clc1ccc(-c2csc(NN=Cc3ccncc3)n2)cc1Cl [Compound 2o, 4-(3,4-Dichlorophenyl)-2-(2-(pyridin-4-ylmethylene)hydrazinyl)thiazole] | 87.11% | 1.87% | 3.10% | 7.92% | 12.85% | 87.73% | 5.04 ± 0.31 µg/mL (≈ 14.4 µM) |  | 25.00% | 0.00% | 51.9 ± 0.58 µg/mL (≈ 149 µM) |  |
| CS(=O)(=O)c1ccc(-c2csc(NN=Cc3ccccn3)n2)cc1 [Compound 2b, 4-(4-(Methylsulfonyl)phenyl)-2-(2-(pyridin-2-ylmethylene)hydrazinyl)thiazole] | 90.44% | 6.95% | 0.33% | 2.28% | 47.96% | 54.51% | 9.93 ± 0.37 µg/mL (≈ 27.7 µM) |  | 84.70% | 7.73% | 31.2 ± 0.56 µg/mL (≈ 87.2 µM) | apoptosis induction, result in words (A549 cells [1]): did not significantly induce apoptosis; mitochondrial membrane depolarization relative to cisplatin (A549 cells [2]; versus cisplatin): approximately 1.5 times |
| Oc1ccc(-c2csc(NN=Cc3ccccn3)n2)cc1O [Compound 2d, 4-(2-(2-(Pyridin-2-ylmethylene)hydrazinyl)thiazol-4-yl)benzene-1,2-diol] |  |  |  |  |  |  | 4.7 ± 0.6 µg/mL (≈ 15 µM) | 1.96 |  |  | 9.2 ± 0.36 µg/mL (≈ 29.5 µM) |  |
| COc1ccc(S(=O)(=O)N(CC(=O)NO)CC(C)C)cc1 [NNGH, N-isobutyl-N-(4-methoxyphenylsulfonyl)glycyl hydroxamic acid, reference compound] |  |  |  |  |  |  |  |  |  |  |  | MMP-9 inhibition % (MMP-9 enzyme; standard at 1.3 μM): 93.56 ± 1.78% |
